Assay results as given in ChEMBL document CHEMBL1201862, “PubChem BioAssay data set” (2004).
Active and inactive are the calls of the source.

Columns and labels:
[1] = P. falciparum Dd2 growth inhibitors, dose response, SYBR Green, cherry-picked samples (AID 1159567); assay type: functional, cell-based
[2] = blockers of HIV-1 ZM109 envelope-driven cell-cell fusion – HeLa effector, CEM target cells, luciferase, cherry-pick, dose response (AID 652058); assay type: functional, cell-based;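 further: luciferase signal from HIV-1 Env mediated cell-cell fusion of effector and target cells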
[3] = blockers of HIV-1 envelope-mediated cell-cell fusion – cherry-pick, dose response (AID 652057); assay type: functional, cell-based
[4] = toxicity to human hepatoma HepG2 cells – cell-based, cherry-picked samples, cytotoxicity control, dose response (AID 1159577); assay type: functional
[5] = HIV-1 AD8 envelope cell-cell fusion blockers – cherry-pick, dose response (AID 652062); assay type: functional, cell-based;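 further: luciferase signal from cell-cell fusion driven by HIV-1 clade B AD8 Env; potency is for inhibitors of fusion seen as a drop in luminescence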
[6] = RKO cell viability reduction, dose response, CellTiter-Glo luminescence (AID 1117322); assay type: functional
[7] = cytotoxicity toward HCT116 cells – cell-based, CellTiter-Glo luminescence, IC50, dose response (AID 1117332); assay type: functional; conditions: HCT-116
[8] = HCT116 cell viability decrease, GSK3B pretreatment – CellTiter-Glo, IC50, dose response (AID 1117339); assay type: functional; conditions: HCT-116
[9] = SNU-C1 cell viability reduction, dose response, CellTiter-Glo luminescence (AID 1117323); assay type: functional, cell-based
[10] = cytotoxicity toward HT-29 cells – cell-based, CellTiter-Glo luminescence, IC50, dose response (AID 1117330); assay type: functional
[11] = CellTiter-Glo luminescence survival assay, SW480 colon tumor line, concentration-response curve, half-maximal inhibitory concentration (AID 1117338); assay type: functional
[12] = Reduced DLD-1 viability, concentration-response, CellTiter-Glo luminescence (AID 1117352); assay type: functional
[13] = cytotoxicity toward Colo320 cells – cell-based, CellTiter-Glo luminescence, IC50, dose response (AID 1117334); assay type: functional; conditions: COLO 320
[14] = general cell-killing toxicity readout – plate reader, dry powder samples, cytotoxicity control for PAX8 inhibitor project, dose response (AID 743021); assay type: functional, cell-based
[15] = OVCAR-3 cell viability loss – plate reader, dry powder samples, PAX8 inhibitor project, dose response (AID 743044); assay type: functional, cell-based
Paired box protein Pax-8 = Paired box protein Pax-8 (Homo sapiens, UniProt Q06710); experiment: PAX8 transcriptional activity inhibition in RMG-I – RMG-I cells, luciferase, cherry-pick, dose response (AID 687027); assay type: functional, cell-based;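 further: luciferase reporter driven by Pax8 target thyroperoxidase promoter measured by SteadyGlo luminescence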
Paired box protein Pax-8, sequence (Q06710 whole entry): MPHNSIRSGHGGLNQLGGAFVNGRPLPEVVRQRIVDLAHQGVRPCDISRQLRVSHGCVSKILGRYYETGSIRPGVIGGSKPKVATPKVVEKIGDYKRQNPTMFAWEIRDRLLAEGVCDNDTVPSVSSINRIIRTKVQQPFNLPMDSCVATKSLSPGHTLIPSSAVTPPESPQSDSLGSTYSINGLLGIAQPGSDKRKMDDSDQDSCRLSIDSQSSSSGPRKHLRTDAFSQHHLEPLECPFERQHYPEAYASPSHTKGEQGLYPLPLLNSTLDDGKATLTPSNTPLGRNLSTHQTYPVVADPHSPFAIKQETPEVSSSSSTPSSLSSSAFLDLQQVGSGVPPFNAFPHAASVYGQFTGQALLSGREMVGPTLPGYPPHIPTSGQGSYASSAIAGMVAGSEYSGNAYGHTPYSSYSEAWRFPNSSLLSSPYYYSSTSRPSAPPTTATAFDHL

[16] = IGROV1 cell killing – plate reader, dry powder samples, PAX8 inhibitor project, dose response (AID 743043); assay type: functional, cell-based; conditions: IGROV-1
HeLa = experiment: viability loss in HeLa cells – cell-based, ATP luminescence, cherry-pick samples, cytotoxicity control, dose response (AID 687004); assay type: functional; conditions: Homo sapiens
[17] = Dd2 malaria parasite growth inhibition potency – SYBR Green, dry powder samples, dose response (AID 1159566); assay type: functional, cell-based;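 further: potency for growth inhibition with lower SYBR green DNA signal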
[18] = general mammalian cell viability loss – activator set, cherry-pick, cytotoxicity control for miR-122 modulator project, dose response (AID 720690); assay type: functional, cell-based;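 further: HEK293T human cells scored for general mammalian cytotoxicity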
[19] = toxicity to human HepG2 hepatoma cells – cell-based, plate reader, dry powder samples, cytotoxicity control, dose response (AID 1159569); assay type: functional;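 further: inhibitor potency with signal falling toward the positive control level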
[20] = growth inhibition of PfATP4-mutant resistant parasites – NITD609-resistant line, SYBR Green, dry powder, dose response (AID 1159571); assay type: functional, cell-based;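 further: parasites synchronized at ring stage by sorbitol before testing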
[21] = growth inhibition of yeast DHODH-expressing 3D7 parasites – SYBR Green, dry powder samples, dose response (AID 1159570); assay type: functional, cell-based;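 further: parasite growth measured after 72 hours of compound exposure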
[22] = biological target: NAD-dependent protein deacylase sirtuin-5, mitochondrial (Homo sapiens, UniProt Q9NXA8); experiment: blockers of sirtuin-5 peptide desuccinylation – biochemical, fluorescence imaging, cherry-pick, set 6, dose response (AID 720597)
NAD-dependent protein deacylase sirtuin-5, mitochondrial, sequence (Q9NXA8 whole entry): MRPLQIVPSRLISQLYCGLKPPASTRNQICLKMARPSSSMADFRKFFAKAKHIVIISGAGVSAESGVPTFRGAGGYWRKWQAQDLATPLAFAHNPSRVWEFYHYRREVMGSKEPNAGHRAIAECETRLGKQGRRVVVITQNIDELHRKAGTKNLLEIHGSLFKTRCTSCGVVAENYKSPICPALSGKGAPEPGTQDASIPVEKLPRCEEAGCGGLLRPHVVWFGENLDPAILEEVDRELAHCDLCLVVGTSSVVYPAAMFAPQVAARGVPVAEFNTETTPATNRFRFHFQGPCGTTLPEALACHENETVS

[23] = viability loss in HEK293 kidney cells – cell-based, cherry-picks, set 5, cytotoxicity control, dose response (AID 1053117); assay type: functional
cells = assay type: functional, cell-based
[24] = biological target: T1, Nuclear receptor subfamily 0 group B member 1 (Homo sapiens, UniProt P51843); assay type: functional, cell-based;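 further: HEK293T cells transfected with SF-1 and DAX-1 plus StAR promoter luciferase reporter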
T1 sequence (P51843 whole entry): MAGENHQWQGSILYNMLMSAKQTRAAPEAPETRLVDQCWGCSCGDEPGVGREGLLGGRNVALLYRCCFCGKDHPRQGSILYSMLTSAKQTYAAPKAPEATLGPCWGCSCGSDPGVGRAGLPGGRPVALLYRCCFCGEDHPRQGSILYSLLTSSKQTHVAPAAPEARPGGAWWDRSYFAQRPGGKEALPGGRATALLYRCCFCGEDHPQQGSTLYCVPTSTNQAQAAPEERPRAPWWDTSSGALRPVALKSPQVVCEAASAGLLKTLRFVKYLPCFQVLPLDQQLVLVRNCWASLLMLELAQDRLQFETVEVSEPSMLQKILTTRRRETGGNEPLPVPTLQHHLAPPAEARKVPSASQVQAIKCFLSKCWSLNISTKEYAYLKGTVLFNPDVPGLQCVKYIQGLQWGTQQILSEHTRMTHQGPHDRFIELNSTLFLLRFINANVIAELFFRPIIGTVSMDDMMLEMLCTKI

[25] = biological target: SWI/SNF-related matrix-associated actin-dependent regulator of chromatin subfamily A member 2 (Homo sapiens, UniProt P51531); experiment: Luminescence-based cell-based high throughput dose response assay to identify activators of the function of SWI/SNF related, matrix associated, actin dependent regulator of chromatin, subfamily a, member 2 (SMARCA2, BRM).; assay type: functional
SWI/SNF-related matrix-associated actin-dependent regulator of chromatin subfamily A member 2, sequence (P51531 whole entry): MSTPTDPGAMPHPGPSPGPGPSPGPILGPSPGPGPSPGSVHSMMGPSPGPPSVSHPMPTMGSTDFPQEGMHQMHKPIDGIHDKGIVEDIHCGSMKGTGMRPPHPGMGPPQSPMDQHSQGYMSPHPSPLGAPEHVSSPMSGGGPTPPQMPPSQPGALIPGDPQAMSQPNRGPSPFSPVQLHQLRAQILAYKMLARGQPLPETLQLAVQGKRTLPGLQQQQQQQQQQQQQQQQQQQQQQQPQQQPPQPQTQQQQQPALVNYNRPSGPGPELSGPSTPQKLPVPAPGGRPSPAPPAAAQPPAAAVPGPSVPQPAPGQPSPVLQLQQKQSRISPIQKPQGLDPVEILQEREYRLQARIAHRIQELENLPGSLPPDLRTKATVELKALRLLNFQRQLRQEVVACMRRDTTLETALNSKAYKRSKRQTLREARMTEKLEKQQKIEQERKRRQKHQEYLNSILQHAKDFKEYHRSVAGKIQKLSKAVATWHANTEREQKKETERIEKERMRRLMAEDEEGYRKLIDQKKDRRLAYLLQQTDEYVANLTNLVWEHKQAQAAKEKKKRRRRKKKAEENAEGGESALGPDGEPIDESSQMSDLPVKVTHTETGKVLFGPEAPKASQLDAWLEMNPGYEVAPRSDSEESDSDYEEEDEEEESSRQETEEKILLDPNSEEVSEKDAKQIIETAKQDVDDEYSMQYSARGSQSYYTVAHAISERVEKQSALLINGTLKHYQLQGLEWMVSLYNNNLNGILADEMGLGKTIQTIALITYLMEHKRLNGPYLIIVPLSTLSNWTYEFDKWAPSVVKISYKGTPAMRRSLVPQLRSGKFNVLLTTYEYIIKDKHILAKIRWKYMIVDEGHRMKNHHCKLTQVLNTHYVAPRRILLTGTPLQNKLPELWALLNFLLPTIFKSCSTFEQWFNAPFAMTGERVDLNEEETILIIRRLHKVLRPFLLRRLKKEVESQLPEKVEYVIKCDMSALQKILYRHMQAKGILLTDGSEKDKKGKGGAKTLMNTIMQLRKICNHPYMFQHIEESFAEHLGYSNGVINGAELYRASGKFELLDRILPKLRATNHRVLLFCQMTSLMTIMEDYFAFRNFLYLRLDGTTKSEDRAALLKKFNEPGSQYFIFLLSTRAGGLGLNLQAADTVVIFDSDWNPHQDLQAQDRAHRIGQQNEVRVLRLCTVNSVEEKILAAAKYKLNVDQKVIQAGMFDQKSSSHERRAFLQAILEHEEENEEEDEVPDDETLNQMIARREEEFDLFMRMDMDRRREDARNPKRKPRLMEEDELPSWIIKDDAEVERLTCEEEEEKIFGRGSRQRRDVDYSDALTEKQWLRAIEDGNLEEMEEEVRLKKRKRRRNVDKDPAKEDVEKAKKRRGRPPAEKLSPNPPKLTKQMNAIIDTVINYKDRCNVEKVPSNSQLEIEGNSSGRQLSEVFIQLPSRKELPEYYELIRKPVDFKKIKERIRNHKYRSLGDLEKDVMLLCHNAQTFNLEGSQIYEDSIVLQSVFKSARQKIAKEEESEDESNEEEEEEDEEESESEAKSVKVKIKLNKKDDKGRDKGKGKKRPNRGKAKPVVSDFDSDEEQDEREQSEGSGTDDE

[26] = Counterscreen for activators of the function of SWI/SNF related, matrix associated, actin dependent regulator of chromatin, subfamily a, member 2 (SMARCA2, BRM): Luminescence-based cell-based high throughput dose response assay to identify non-selective compounds using the VP16 reporter assay.; assay type: functional

With `C[C@@H]1CN([C@@H](C)CO)C(=O)Cc2cc(NC(=O)Nc3ccc4c(c3)OCO4)ccc2O[C@H]1CN(C)Cc1ccc(Cl)c(Cl)c1` the AC50 [1] was 5.32 µM (active), the AC50 [2] was 21.8 µM (active) and the AC50 [3] was 23.5 µM (active). The AC50 [4] was > 39 µM (inactive) and the AC50 [5] was 25 µM (active).
In the case of `COc1ccc(CN2CCN(C(c3ccc(F)cc3)c3ccc(F)cc3)CC2)c(OC)c1OC`, the IC50 [6] is reported as 3.7 µM (active), the IC50 [7] is reported as 1.7 µM (active) and the IC50 [8] is reported as 2.77 µM (active). The IC50 [9] was 0.443 µM (active), the IC50 [10] was 2.93 µM (active) and the IC50 [11] was 3.32 µM (active). The IC50 [12] was 3.13 µM (active) and the IC50 [13] was 2.82 µM (active).
With `O=C(Nc1cccc(F)c1)N1CCCCN2[C@H](CO)[C@@H](c3ccc(-c4ccccc4F)cc3)[C@H]2C1` the AC50 [14] was 57.4 µM (active), the AC50 [15] was 21.9 µM (active) and the AC50 (Paired box protein Pax-8) was 10.2 µM (active). The AC50 [16] was 50.9 µM (active).
For `C[C@@H]1CN([C@@H](C)CO)C(=O)c2cccc(NS(C)(=O)=O)c2O[C@@H]1CN(C)C(=O)Nc1ccc2c(c1)OCO2`, the AC50 (HeLa) was 21.1 µM (active).
In the case of `C[C@H]1CN([C@@H](C)CO)S(=O)(=O)c2ccc(C#Cc3ccccc3F)cc2O[C@@H]1CN(C)C(=O)c1ccc2c(c1)OCO2`, the AC50 [1] is reported as 1.66 µM (active), the AC50 [17] is reported as 1.55 µM (active) and the AC50 [18] is reported as 19.5 µM (active). For the same molecule, the AC50 [19] was 33.7 µM (active), the AC50 [20] was 1.71 µM (active) and the AC50 [21] was 2.06 µM (active).
For `CN(C)C(=O)c1cccc(-c2ccccc2[C@H]2[C@@H](C#N)N(C(=O)C3CC3)[C@@H]2CO)c1`, the AC50 [22] was > 32 µM (inactive).
In the case of `CCCC#Cc1ccc2c(c1)O[C@@H](CN(C)C(=O)Nc1ccccc1F)[C@H](C)CN([C@H](C)CO)S2(=O)=O`, the AC50 [22] is reported as > 30 µM (inactive).
With `C[C@H](CO)N1C[C@H](C)[C@H](CN(C)C(=O)c2cccc(F)c2)Oc2ncc(-c3ccccc3)cc2C1=O` the AC50 [23] was > 52 µM (inactive).
For `COc1ccc(-c2ccc([C@H]3[C@@H]4CN(S(=O)(=O)c5cccc(C)c5)C[C@H]3N4)cc2)cc1`, the AC50 [1] was 1.99 µM (active), the AC50 [17] was 2 µM (active) and the AC50 [19] was 20.8 µM (active). For the same molecule, the AC50 [20] was 1.86 µM (active), the AC50 [4] was > 39 µM (inactive) and the AC50 [21] was 1.48 µM (active).
In the case of `COc1ccc(OC)c(-c2nnc3n2N=C(c2ccc(OC)c(OC4CCOC4)c2)CS3)c1` (stereo not drawn), the IC50 (cells) is reported as > 67.5 µM (inactive), the AC50 (Paired box protein Pax-8) is reported as 2.71 µM (active) and the IC50 [24] is reported as > 67.5 µM (inactive).
With `O=Cc1ccc2noc(-c3ccc(Cl)cc3)c2c1` the EC50 [25] was > 91.1 µM (inactive) and the EC50 [26] was > 91.2 µM (inactive).
